A word on the logP: it is the decadic logarithm of the partition coefficient of the neutral form, usually between octanol and water. Higher therefore signals a more lipophilic compound.

The conditions of this data set: phenol between MCT oil phase and saline phase; oil and saline 19:1; HPLC.

Source text: The partition coefficient P is a value calculated by dividing a concentration of preservative in the oil phase by a concentration of preservative in the water phase.

For `Oc1ccccc1` [phenol], the log partition coefficient (logP) is 1.1.

The record behind these values is patent publication US9161981B2 (LG LIFE SCIENCES, LTD., priority 2010, dated 2015).
